These results are taken from paper PMC7730438, “Generation of KS-58 as the first K-Ras(G12D)-inhibitory peptide presenting anti-cancer activity in vivo” (Scientific Reports, 2020).

Experiment [1] deals with phosphorylation of ERK in PANC-1 cells. Kind of experiment: Erk-phosphorylation assay (Phospho-ERK1/ERK2 ELISA). In kind it is cell-based, human. The following applies: PANC-1, peptide 30 µM, n = 4, ± SEM. The method, then: (§1) A427 (ATCC HTB-53), A549 (ATCC CCL-185), H1975 (ATCC CRL-5908), PANC-1 (ATCC CRL-1469), MIA PaCa-2 (ATCC CRL-1420), and Capan-1 (ATCC HTB-79) cells were purchased from ATCC, and each cell was cultured in medium supplemented with 10% fetal bovine serum (FBS), according to the protocol recommended by the manufacture.
(§2) For evaluation of the effect of peptides on Ras–ERK pathways, phosphorylation of ERK was measured by Phospho-ERK1 (T202/Y204)/ERK2 (T185/Y187) DuoSet IC ELISA (DYC1018B-2, R&D SYSTEMS, MN, USA) according to the protocol supplied by the manufacturer. After 16 h serum starvation, cells were treated with peptides diluted in FBS-free medium for 1 h, and then treated with peptides diluted in FBS-containing medium for an additional 1 h. Phosphorylation rate of ERK (%) was calculated based on no serum stimulation as 0% and serum stimulation without peptide treatment as 100%.
In general terms: An ELISA detects its analyte on a solid surface through an enzyme-linked reagent.

Experiment [2] relates to phosphorylation of ERK in A427 cells. The experiment is described as above. The settings on record: A427, peptide 30 µM, n = 4, ± SEM. In kind it is cell-based, human. The method, then:
as §1, §2

Experiment [3] concerns the target T1, K-Ras(G12D)^GTP–BRAF interaction (Homo sapiens, UniProt P01116, G12D).
T1 construct: host or cells: HEK293T
Kind of experiment: Intracellular PPI inhibition assay using NanoBiT in HEK293T cells. It is filed as cell-based. The following applies: peptide 30 µM, n = 4. The method, then: (§3) Intracellular protein–protein interaction (PPI) inhibition assays were carried out using the NanoBiT system (Promega). Three kinds of plasmids with CMV promoters, which encodes human K-Ras(G12D) fusing SmBiT to the N-terminus, encodes human SOS1 fusing LgBiT to the C-terminus, and encodes human BRAF fusing LgBiT to the C-terminus, were prepared by Promega. Each combination of plasmids was transfected to HEK293T cells by FuGENE HD Reagent (E2312, […]). After 30 h incubation at 37 °C under 5% CO2, the cells were recovered, and seeded to 96-well tissue culture white plate with 10% FBS containing DMEM, and incubated overnight. Peptides were added to the plate and incubated for another 2 h. Nano-Glo (Promega, N2011) was directly added to the plate, and luminescence was immediately monitored. Intracellular K-Ras(G12D)^GDP–SOS1 and K-Ras(G12D)^GTP–BRAF interactions (%) were calculated based on no peptide treatment as 100% and only transfection of plasmid encoding LgBiT fusion protein as 0%.

In experiment [4] the target is T2, K-Ras(G12D)^GDP–SOS1 interaction (Homo sapiens, UniProt P01116, G12D).
T2 construct: host or cells: HEK293T
The description is as above. It is filed as cell-based. The following applies: peptide 30 µM, n = 4. The method, then: as §3

Values joined by “and” are separate entries in the source; they are usually repeats but may differ in a detail not shown here. Identical values can stand only once. Starred links: 1 amine or outer side, 2 acyl side, 3 side chain; linkers in the order of their positions; H or OH if unused. Positions of bridges follow the written chain, without caps; N, C: chain ends. Non-standard residues stand in square brackets, D forms with d. Residues, ends and D or L forms follow the SMILES beside them. Phe(4-F) = N[C@@H](Cc1ccc(F)cc1)C(=O)O; X1 = CCCCCCC[C@H](N[*:1])C(=O)[*:2]; Nle = CCCC[C@H](N)C(=O)O; X2 = C(C[*:1])C[*:2]; βAla = NCCC(=O)O

Turning to `CCCCCCC[C@@H]1NC(=O)[C@@H]2CSCCCSC[C@@H](NC(=O)[C@H](Cc3c[nH]c4ccccc34)NC(=O)[C@@H]3CCCN3C(=O)[C@H](CC(=O)O)NC(=O)[C@H](Cc3ccc(F)cc3)NC(=O)[C@H](CO)NC1=O)C(=O)NCCC(=O)N1CCC[C@H]1C(=O)N[C@@H](CCCC)C(=O)N2` [KS-58, c[βAla-Pro-Nle-c(Cys-Anon-Ser-4fF-Asp-Pro-Trp-^DCys)]] (cyclo([βAla]P[Nle]C[X1]S[Phe(4-F)]DPW[dC]); linker 4-11 via X2), the “pERK (%)” value in experiment [1] was 57.6% and 57.6 ± 7.6%; in experiment [2], 26.0% and 26.0 ± 6.0%. Further, the “Intracellular K-Ras(G12D)^GTP–BRAF interaction (luminescence, %)” value in experiment [3] is given as 53.8%. Also, the “Intracellular K-Ras(G12D)^GDP–SOS1 interaction (luminescence, %)” value in experiment [4] came to 35.5%.
